Test results from ChEMBL document CHEMBL1777763, “Discovery of a nortropanol derivative as a potent and orally active GPR119 agonist for type 2 diabetes” (Bioorg Med Chem Lett, 2011).
The source made the active and inactive calls. No cut-off for these calls is given here.

Assays:
[1] = Plasma concentration in mouse at 3 mg/kg, po after 1 hr; assay type: ADME, organism-based; design: dose 3 mg/kg, route oral
[2] = Plasma concentration in lean mouse at 30 mg/kg, po after 60 mins; assay type: ADME, organism-based; design: dose 30 mg/kg, route oral
[3] = tested on: Rattus norvegicus; assay: AUC (0 to 6 hrs) in rat at 10 mg/kg, po; assay type: ADME, organism-based, Plasma; design: time < 6 hr, dose 10 mg/kg, route oral; details: in vivo
[4] = tested on: Mus musculus; assay: Antidiabetic activity in overnight fasted mouse model assessed as blood glucose level at 3 mg/kg, po followed by 30 mins after administered 3 g/kg, po glucose by oral glucose tolerance test (reference value: 100 %); assay type: functional
[5] = tested on: Mus musculus; assay: Antidiabetic activity in laen mouse model assessed as reduction in blood glucose level at 30 mg/kg, po up to 60 mins by oral glucose tolerance test; assay type: functional; details: 1 h
[6] = target: T1, Glucose-dependent insulinotropic receptor (Mus musculus) (UniProt Q7TQP3); assay: Agonist activity at mouse GPR119 expressed in HEK293 cells assessed as maximal stimulation of cMAP level by cell-based cAMP assay relative to 21; assay type: functional
T1 sequence (whole entry): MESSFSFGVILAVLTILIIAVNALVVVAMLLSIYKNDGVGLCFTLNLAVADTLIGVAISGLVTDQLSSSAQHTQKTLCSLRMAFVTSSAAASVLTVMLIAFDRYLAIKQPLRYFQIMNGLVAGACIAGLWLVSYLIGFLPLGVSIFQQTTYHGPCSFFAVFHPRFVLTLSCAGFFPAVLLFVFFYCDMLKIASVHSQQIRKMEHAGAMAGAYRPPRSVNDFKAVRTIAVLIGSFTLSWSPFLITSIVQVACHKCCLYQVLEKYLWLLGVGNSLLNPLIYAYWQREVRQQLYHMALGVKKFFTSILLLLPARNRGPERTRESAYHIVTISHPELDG

[7] = target: T2, Glucose-dependent insulinotropic receptor (Mus musculus, UniProt Q7TQP3); assay: Agonist activity at mouse GPR119 expressed in HEK293 cells assessed as stimulation of cMAP level by cell-based cAMP assay; assay type: functional
T2 sequence (Q7TQP3 whole entry): T1 sequence (whole entry)

[8] = target: Cytochrome P450 2D6 (Homo sapiens, UniProt P10635); assay: Inhibition of CYP2D6; assay type: ADME
[9] = Plasma concentration in lean mouse at 10 mg/kg, po after 60 mins; assay type: ADME, organism-based; design: dose 10 mg/kg, route oral
[10] = tested on: Rhesus monkey; assay: AUC (0 to 24 hrs) in monkey at 3 mg/kg, po; assay type: ADME, organism-based, Macaca mulatta, Plasma; design: time < 24 hr, dose 3 mg/kg, route oral; details: in vivo
[11] = target: T3, PXR (NR1I2) (Homo sapiens, UniProt O75469); assay: Inhibition of human PXR transfected in HepG2 cells at 10 uM; assay type: cell-based; details: HepG2 cells transfected with human PXR
T3 sequence (O75469 whole entry): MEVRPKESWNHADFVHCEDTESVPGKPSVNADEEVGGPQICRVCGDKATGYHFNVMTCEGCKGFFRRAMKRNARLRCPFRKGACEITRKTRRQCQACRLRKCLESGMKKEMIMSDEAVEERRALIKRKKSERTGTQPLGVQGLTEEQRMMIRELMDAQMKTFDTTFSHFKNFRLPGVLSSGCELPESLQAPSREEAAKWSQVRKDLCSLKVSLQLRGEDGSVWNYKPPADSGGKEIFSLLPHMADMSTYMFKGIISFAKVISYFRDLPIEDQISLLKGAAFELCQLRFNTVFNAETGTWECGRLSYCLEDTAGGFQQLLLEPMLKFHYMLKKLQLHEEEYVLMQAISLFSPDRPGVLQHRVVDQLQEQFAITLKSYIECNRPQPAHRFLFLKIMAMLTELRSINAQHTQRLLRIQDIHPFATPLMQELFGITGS

[12] = target: Cytochrome P450 3A4 (Homo sapiens, UniProt P08684); assay: Inhibition of CYP3A4; assay type: ADME
[13] = tested on: Rattus norvegicus; assay: Antidiabetic activity in lean anesthetized rat hyperglycemic clamp model assessed as increase in insulin level at 1 mg/kg, iv relative to control
[14] = Cmax in monkey at 3 mg/kg, po; assay type: ADME, organism-based, Macaca mulatta; design: dose 3 mg/kg, route oral; details: rhesus monkey, in vivo
[15] = target: hERG (KCNH2) (Homo sapiens, UniProt Q12809); assay: Inhibition of human ERG at 10 uM
[16] = Plasma concentration in lean mouse at 3 mg/kg, po after 60 mins; assay type: ADME, organism-based; design: dose 3 mg/kg, route oral
[17] = target: Probable G-protein coupled receptor 160 (Homo sapiens) (UniProt Q9UJ42); assay: Inhibition of GPCR-1 at 10 uM
[18] = Tmax in monkey at 3 mg/kg, po; assay type: ADME, organism-based, Macaca mulatta; design: dose 3 mg/kg, route oral; details: rhesus monkey, in vivo
[19] = target: Cytochrome P450 2C9 (Homo sapiens, UniProt P11712); assay: Inhibition of CYP2C9; assay type: ADME
[20] = tested on: Mus musculus; assay: Antidiabetic activity in laen mouse model assessed as reduction in blood glucose level at 10 mg/kg, po up to 60 mins by oral glucose tolerance test; assay type: functional; details: 1 h
[21] = tested on: Mus musculus; assay: Antidiabetic activity in laen mouse model assessed as reduction in blood glucose level at 3 mg/kg, po up to 60 mins by oral glucose tolerance test; assay type: functional; details: 1 h
[22] = tested on: Salmonella typhimurium; assay: Genotoxicity in Salmonella Typhimurium by Ames test; assay type: toxicity, organism-based; details: salmonella enterica subsp. enterica serovar typhimurium

Chain of Cytochrome P450 2D6 (P10635 whole entry): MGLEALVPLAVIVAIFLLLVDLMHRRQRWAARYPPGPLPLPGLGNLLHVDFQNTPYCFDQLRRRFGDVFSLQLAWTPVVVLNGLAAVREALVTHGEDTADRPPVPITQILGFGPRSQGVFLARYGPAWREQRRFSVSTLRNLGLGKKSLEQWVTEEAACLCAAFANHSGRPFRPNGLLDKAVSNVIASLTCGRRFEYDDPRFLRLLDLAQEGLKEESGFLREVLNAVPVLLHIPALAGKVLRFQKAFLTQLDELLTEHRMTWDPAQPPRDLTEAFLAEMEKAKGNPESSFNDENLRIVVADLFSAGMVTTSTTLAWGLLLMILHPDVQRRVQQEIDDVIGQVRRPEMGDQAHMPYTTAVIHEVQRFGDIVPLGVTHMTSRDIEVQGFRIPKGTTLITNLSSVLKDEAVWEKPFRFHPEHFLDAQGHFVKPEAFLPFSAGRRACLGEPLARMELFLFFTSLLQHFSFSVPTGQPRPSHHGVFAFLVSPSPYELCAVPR
Chain of Cytochrome P450 3A4 (P08684 whole entry): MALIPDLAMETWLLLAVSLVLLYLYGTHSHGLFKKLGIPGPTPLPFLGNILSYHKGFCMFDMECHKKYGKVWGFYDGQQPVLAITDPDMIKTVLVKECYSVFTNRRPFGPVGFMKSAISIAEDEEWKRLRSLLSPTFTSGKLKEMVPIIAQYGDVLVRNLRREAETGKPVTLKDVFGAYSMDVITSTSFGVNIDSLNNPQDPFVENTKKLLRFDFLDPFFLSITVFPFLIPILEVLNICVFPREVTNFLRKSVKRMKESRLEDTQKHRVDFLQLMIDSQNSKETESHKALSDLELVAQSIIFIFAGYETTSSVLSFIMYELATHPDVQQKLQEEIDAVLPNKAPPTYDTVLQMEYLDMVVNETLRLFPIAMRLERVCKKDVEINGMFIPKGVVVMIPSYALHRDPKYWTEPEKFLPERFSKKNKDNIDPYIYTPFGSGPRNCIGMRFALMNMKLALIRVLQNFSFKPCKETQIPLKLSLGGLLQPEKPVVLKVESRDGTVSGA
Chain of Probable G-protein coupled receptor 160 (Homo sapiens) (Q9UJ42 whole entry): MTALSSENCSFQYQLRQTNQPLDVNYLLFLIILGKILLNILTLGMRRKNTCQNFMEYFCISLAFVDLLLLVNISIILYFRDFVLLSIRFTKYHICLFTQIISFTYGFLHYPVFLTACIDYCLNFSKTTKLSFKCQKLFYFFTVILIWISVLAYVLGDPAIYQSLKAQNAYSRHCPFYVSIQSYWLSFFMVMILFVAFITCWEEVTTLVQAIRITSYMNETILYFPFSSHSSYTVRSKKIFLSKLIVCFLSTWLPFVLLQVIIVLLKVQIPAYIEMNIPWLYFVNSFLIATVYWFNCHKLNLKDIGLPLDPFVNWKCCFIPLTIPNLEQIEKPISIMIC
Chain of Cytochrome P450 2C9 (P11712 whole entry): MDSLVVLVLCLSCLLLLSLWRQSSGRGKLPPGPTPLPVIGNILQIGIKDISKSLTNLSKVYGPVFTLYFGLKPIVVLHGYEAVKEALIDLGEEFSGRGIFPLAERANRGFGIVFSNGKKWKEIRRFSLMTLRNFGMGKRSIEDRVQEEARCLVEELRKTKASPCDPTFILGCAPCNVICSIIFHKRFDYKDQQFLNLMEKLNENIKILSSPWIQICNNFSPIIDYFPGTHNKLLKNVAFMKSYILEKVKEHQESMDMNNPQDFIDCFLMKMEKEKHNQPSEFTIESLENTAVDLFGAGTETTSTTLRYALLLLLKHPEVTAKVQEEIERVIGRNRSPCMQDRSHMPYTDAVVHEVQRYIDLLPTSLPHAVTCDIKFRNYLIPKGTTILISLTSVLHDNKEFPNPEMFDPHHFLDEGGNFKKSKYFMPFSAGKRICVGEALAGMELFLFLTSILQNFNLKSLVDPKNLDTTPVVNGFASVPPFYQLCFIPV
Chain of hERG (KCNH2) (Q12809 whole entry): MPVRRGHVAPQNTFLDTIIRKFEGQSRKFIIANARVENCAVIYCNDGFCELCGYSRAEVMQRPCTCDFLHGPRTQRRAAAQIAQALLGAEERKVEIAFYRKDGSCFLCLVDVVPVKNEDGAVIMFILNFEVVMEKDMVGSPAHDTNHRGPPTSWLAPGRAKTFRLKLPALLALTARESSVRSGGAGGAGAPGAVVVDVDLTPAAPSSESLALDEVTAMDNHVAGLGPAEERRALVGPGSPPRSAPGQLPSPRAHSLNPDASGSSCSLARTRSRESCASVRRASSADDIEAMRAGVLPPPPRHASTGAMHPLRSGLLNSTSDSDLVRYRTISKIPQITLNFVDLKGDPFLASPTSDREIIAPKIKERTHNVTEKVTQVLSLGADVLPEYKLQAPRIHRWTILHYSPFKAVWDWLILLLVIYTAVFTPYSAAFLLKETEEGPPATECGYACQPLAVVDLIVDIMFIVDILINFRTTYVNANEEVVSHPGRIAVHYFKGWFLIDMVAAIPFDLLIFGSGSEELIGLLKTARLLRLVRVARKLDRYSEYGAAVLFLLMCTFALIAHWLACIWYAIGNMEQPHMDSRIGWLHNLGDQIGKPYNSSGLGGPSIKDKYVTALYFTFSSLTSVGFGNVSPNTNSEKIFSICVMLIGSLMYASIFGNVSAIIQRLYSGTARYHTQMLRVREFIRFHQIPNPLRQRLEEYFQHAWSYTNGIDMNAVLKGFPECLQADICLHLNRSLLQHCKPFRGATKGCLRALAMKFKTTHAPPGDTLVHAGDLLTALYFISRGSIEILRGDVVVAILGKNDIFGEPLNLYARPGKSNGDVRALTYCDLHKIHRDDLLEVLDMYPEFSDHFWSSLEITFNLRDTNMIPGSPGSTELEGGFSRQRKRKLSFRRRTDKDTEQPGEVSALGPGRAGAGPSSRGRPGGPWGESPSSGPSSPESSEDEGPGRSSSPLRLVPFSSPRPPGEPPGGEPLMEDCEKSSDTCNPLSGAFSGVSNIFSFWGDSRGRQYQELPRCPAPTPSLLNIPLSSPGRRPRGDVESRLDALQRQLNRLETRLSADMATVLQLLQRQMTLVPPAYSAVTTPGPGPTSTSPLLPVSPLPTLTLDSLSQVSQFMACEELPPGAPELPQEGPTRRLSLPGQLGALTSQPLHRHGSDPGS

| SMILES | Activity [6] | EC50 [7] | further results |
| --- | --- | --- | --- |
| CC(C)OC(=O)N1CCC(Oc2cc(Oc3ccc(S(C)(=O)=O)cc3F)ncn2)CC1 | 100% | 403 nM | concentration at 1 h [1]: 480 nM; concentration at 1 h [2]: 12700 nM; AUC [3]: 20.7 µM·h; Blood glucose (% of vehicle) [4]: 78%; inhibition in vivo at 30 mg/kg [5]: 47% |
| Cc1ncccc1Oc1ncnc(O[C@H]2C[C@@H]3CC(F)[C@@H](C2)N3S(=O)(=O)C2CC2)c1C (some centres not stated) | 74% | 710 nM | – |
| Cc1c(Oc2ccc(Cl)cc2C#N)ncnc1O[C@H]1CC2CC[C@@H](C1)N2S(=O)(=O)C1CC1 (single isomer, unassigned) | 44% | 290 nM | – |
| Cc1c(Nc2ccc(C#N)cc2Cl)ncnc1O[C@H]1CC2CC[C@@H](C1)N2S(=O)(=O)C1CC1 (single isomer, unassigned) | 110% | 140 nM | IC50 [8]: > 20000 nM; concentration at 1 h [9]: 800 nM; AUC [10]: 16.5 µM·h; inhibition at 10 µM [11]: 0.09%; concentration at 1 h [1]: 275 nM; IC50 [12]: > 20000 nM; concentration at 1 h [2]: 1400 nM; Activity [13]: Active; Cmax [14]: 997 nM; inhibition at 10 µM [15]: 9%; concentration at 1 h [16]: 400 nM; AUC [3]: 2.17 µM·h; Blood glucose (% of vehicle) [4]: 91%; inhibition in vivo at 30 mg/kg [5]: 39%; inhibition [17]: < 30%; Tmax [18]: 4.5 h; IC50 [19]: > 20000 nM; inhibition in vivo at 10 mg/kg [20]: 30%; inhibition in vivo at 3 mg/kg [21]: 28%; Activity [22]: Non-toxic |
| CCCCS(=O)(=O)N1C2CC[C@H]1C[C@@H](Oc1ncnc(Oc3cccnc3C)c1C)C2 (single isomer, unassigned) | 29% | 26 nM | – |
| Cc1ncccc1Oc1ncnc(O[C@@H]2CC3CC[C@@H](C2)N3C(=O)OC(C)(C)C)c1C (single isomer, unassigned; 20f) | 20% | 300 nM | – |
| Cc1ncccc1Oc1ncnc(O[C@H]2CC3CC[C@@H](C2)N3S(=O)(=O)CC(F)(F)F)c1C (single isomer, unassigned) | 62% | 660 nM | – |
| Cc1ncccc1Oc1ncnc(O[C@H]2CC3CC[C@@H](C2)N3C(=O)OC2(C)CC2)c1C (single isomer, unassigned) | 12% | > 30000 nM | concentration at 1 h [1]: 130 nM; AUC [3]: 2.84 µM·h; Blood glucose (% of vehicle) [4]: 95% |
| Cc1ncccc1Oc1ncnc(O[C@H]2CC3CC[C@@H](C2)N3S(=O)(=O)c2ccc(F)cc2)c1C (single isomer, unassigned) | 78% | 350 nM | – |
| Cc1ncccc1Oc1ncnc(O[C@H]2CC3CC[C@@H](C2)N3S(=O)(=O)C2CC2)c1C (single isomer, unassigned) | 76% | 63 nM | concentration at 1 h [1]: 2330 nM; AUC [3]: 0.879 µM·h; Blood glucose (% of vehicle) [4]: 87% |
| Cc1ncccc1Nc1ncnc(O[C@H]2CC3CC[C@@H](C2)N3S(=O)(=O)C2CC2)c1C (single isomer, unassigned) | 110% | 2000 nM | – |
| Cc1ncccc1Oc1ncnc(O[C@H]2C[C@@H]3CC(F)(F)[C@@H](C2)N3S(=O)(=O)C2CC2)c1C | 52% | 220 nM | – |
| Cc1ncccc1Oc1ncnc(O[C@H]2CC3C=C[C@@H](C2)N3C(=O)OC(C)C)c1C (single isomer, unassigned) | 48% | 52 nM | – |
| Cc1c(Nc2ccc(F)cc2C#N)ncnc1O[C@H]1CC2CC[C@@H](C1)N2S(=O)(=O)C1CC1 (single isomer, unassigned) | 110% | 820 nM | – |
| Cc1ncccc1Oc1ncnc(O[C@H]2CC3CC[C@@H](C2)N3S(=O)(=O)CCC(F)(F)F)c1C (single isomer, unassigned) | 62% | 250 nM | – |
| Cc1ncccc1Oc1ncnc(O[C@H]2CC3CC[C@@H](C2)N3S(=O)(=O)CC(C)C)c1C (single isomer, unassigned) | 69% | 70 nM | AUC [3]: 0 µM·h |
| Cc1ncccc1Oc1ncnc(O[C@H]2CC3C=C[C@@H](C2)N3S(=O)(=O)C2CC2)c1C (single isomer, unassigned) | 78% | 240 nM | – |
| Cc1c(Nc2ccc(C#N)cc2F)ncnc1O[C@H]1CC2CC[C@@H](C1)N2S(=O)(=O)C1CC1 (single isomer, unassigned) | 84% | 220 nM | Blood glucose (% of vehicle) [4]: 95% |
| Cc1ncccc1Oc1ncnc(O[C@H]2CC3CC[C@@H](C2)N3C(=O)OCC(F)(F)F)c1C (single isomer, unassigned) | 20% | 10400 nM | – |
| CCCS(=O)(=O)N1C2CC[C@H]1C[C@@H](Oc1ncnc(Oc3cccnc3C)c1C)C2 (single isomer, unassigned) | 49% | 53 nM | – |
| Cc1c(Oc2ccccc2C#N)ncnc1O[C@H]1CC2CC[C@@H](C1)N2S(=O)(=O)C1CC1 (single isomer, unassigned) | 74% | 68 nM | concentration at 1 h [1]: 290 nM; AUC [3]: 0.461 µM·h; Blood glucose (% of vehicle) [4]: 88% |
| Cc1c(Oc2ccccc2Cl)ncnc1O[C@H]1CC2CC[C@@H](C1)N2S(=O)(=O)C1CC1 (single isomer, unassigned) | 58% | 82 nM | – |
| Cc1c(Nc2ccccc2C#N)ncnc1O[C@H]1CC2CC[C@@H](C1)N2S(=O)(=O)C1CC1 (single isomer, unassigned) | 80% | 180 nM | – |
| Cc1ncccc1Oc1ncnc(O[C@H]2CC3CC[C@@H](C2)N3C(=O)OC(C)C)c1C (single isomer, unassigned) | 20% | 55 nM | concentration at 1 h [1]: 193 nM; AUC [3]: 0.175 µM·h; Blood glucose (% of vehicle) [4]: 100% |
| Cc1c(Nc2ccc(S(C)(=O)=O)cc2F)ncnc1O[C@H]1CC2CC[C@@H](C1)N2S(=O)(=O)C1CC1 (single isomer, unassigned) | 88% | 640 nM | – |
| Cc1ncccc1Oc1ncnc(O[C@H]2CC3CC[C@@H](C2)N3C(=O)OCC2CC2)c1C (single isomer, unassigned) | 33% | 7570 nM | – |
| Cc1ncccc1Oc1ncnc(O[C@H]2CC3CC[C@@H](C2)N3S(=O)(=O)c2ccc(Cl)s2)c1C (single isomer, unassigned) | 77% | 145 nM | – |
| CCOC(=O)N1C2CC[C@H]1C[C@@H](Oc1ncnc(Oc3cccnc3C)c1C)C2 (single isomer, unassigned) | 25% | 324 nM | – |
| Cc1ncccc1Oc1ncnc(O[C@H]2C[C@H]3CC[C@@H](C2)N3C(=O)OC(C)C2CC2)c1C (some centres not stated) | 31% | 59 nM | – |
